Laboratory results: US12613246B2, “Fluorescent probe and protein labeling method” (SHANGHAI GLORY CAPITAL MANAGEMENT LTD., priority 2018, dated 2026)

Tests used:
[1] = Fluorescence emission spectra of probes in glycerol and methanol (viscosity response); assay type: physicochemical; conditions: maximum excitation wavelength of each probe; for Fluorescence ratio in glycerol methanol: 1×10^−5 M; for Emission wavelength: medium not given
From the text: Respectively dissolve Probe 1-32 and Reference Probes BG-CCVJ and BG-Gly-CCVJ in dimethyl sulfoxide so as to prepare a mother liquid with a concentration of 1×10^−2M; add the mother liquid to glycerol and methanol respectively and mix them well to prepare a solution with a concentration of 1×10^−5 M. Based on different probes, the fluorescence emission spectrum of each probe are detected under the same conditions with maximum excitation wavelength of each probe.
The probes are sensitive to the change of viscosity and have viscosity response.

[2] = Fluorescence of free probe before reaction with the protein tag; assay type: physicochemical
Description: (§1) Mix the probe with corresponding protein tag to obtain the mixed sample, wherein the final concentration of probe in the mixed sample is 5 μM, and the final concentration of protein tags is 10 μM; hatch the mixed sample at 37° C. for 1 h, and detect its fluorescence intensity change by using the fluorescence spectrophotometer.
(§2) According to the free probe quantum yield shown in Table 1, the fluorescence of the probes of and reference probes are extremely low before the reaction with the protein tag, and is close to the background fluorescence level of PBS buffer solution. […] However, according to the quantum yield of the binding protein tag, the fluorescence signal enhancement can be detected in the corresponding excitation emission channel after the probe reacts with the protein tag with hundreds to one thousand fold fluorescence activation times and very high brightness; the reference probes also can activate fluorescence, but the fluorescence quantum yield and brightness after activation are quite low.

SNAP protein tag = test: Fluorescence activation after mixing probe with corresponding protein tag (SNAP); assay type: biochemical; conditions: probe 5 μM, protein tag 10 μM, 37° C., 1 h
Description: as §1, §2

CLIP protein tag = test: Fluorescence activation after mixing probe with corresponding protein tag (CLIP); assay type: biochemical; conditions: probe 5 μM, protein tag 10 μM, 37° C., 1 h
Description: as §1, §2

| Compound | Fluorescence ratio in glycerol methanol [1] | Emission wavelength [1] [nm] | Quantum yield of free probe [2] | Fluorescence activation multiple (SNAP protein tag) | Quantum yield of binding protein tags (SNAP protein tag) | Fluorescence activation multiple (CLIP protein tag) | Quantum yield of binding protein tags (CLIP protein tag) |
| --- | --- | --- | --- | --- | --- | --- | --- |
| CN(CCOC(=O)NCc1ccc(COc2nc(N)nc3[nH]cnc23)cc1)c1ccc2nc(/C=C(\C#N)C(=O)OC(C)(C)C)ccc2c1 [Probe 1] | 562 | 550 | <0.001 | 490 | 0.41 | – | – |
| CN(CCOC(=O)NCc1ccc(COc2nc(N)nc3[nH]cnc23)cc1)c1ccc2nc(/C=C(\C#N)c3nc4ccccc4o3)ccc2c1 [Probe 2] | 790 | 630 | <0.001 | 556 | 0.44 | – | – |
| CN(CCOC(=O)NCc1ccc(COc2nccc(N)n2)cc1)c1ccc2nc(/C=C(\C#N)C(=O)OC(C)(C)C)ccc2c1 [Probe 3] | 621 | 550 | <0.001 | – | – | 473 | 0.41 |
| CN(CCOC(=O)NCc1ccc(COc2cc(Cl)nc(N)n2)cc1)c1ccc2nc(/C=C(\C#N)C(=O)OC(C)(C)C)ccc2c1 [Probe 4] | 601 | 550 | <0.001 | 567 | 0.39 | – | – |
| CN(CCOC(=O)NCc1ccc(COc2nc(N)nc3[nH]cnc23)cc1)c1ccc(-c2ccc(/C=C(\C#N)C(=O)OC(C)(C)C)o2)cc1 [Probe 5] | 821 | 615 | <0.001 | 669 | 0.44 | – | – |
| COCCNC(=O)/C(C#N)=C/c1ccc(-c2ccc(N(C)CCOC(=O)NCc3ccc(COc4nc(N)nc5[nH]cnc45)cc3)cc2)o1 [Probe 6] | 851 | 627 | <0.001 | 745 | 0.41 | – | – |
| CN(CCOC(=O)NCc1ccc(COc2nc(N)nc3[nH]cnc23)cc1)c1ccc(-c2ccc(/C=C(\C#N)c3nc4ccccc4o3)o2)cc1 [Probe 7] | 814 | 666 | <0.001 | 701 | 0.45 | – | – |
| CN(CCOC(=O)NCc1ccc(COc2nccc(N)n2)cc1)c1ccc(-c2ccc(/C=C(\C#N)C(=O)OC(C)(C)C)o2)cc1 [Probe 8] | 574 | 630 | <0.001 | – | – | 555 | 0.40 |
| CN(CCOC(=O)NCc1ccc(COc2nc(N)nc3[nH]cnc23)cc1)c1ccc(-c2ccc(/C=C(\C#N)C(=O)OC(C)(C)C)o2)o1 [Probe 13] | 311 | 650 | 0.0012 | 359 | 0.37 | – | – |
| CN(CCOC(=O)NCc1ccc(COc2nc(N)nc3[nH]cnc23)cc1)c1ccc(-c2ccc(/C=C(\C#N)c3nc4ccccc4s3)o2)o1 [Probe 14] | 402 | 725 | 0.001 | 498 | 0.35 | – | – |
| CN(CCOC(=O)NCc1ccc(COc2nccc(N)n2)cc1)c1ccc(-c2ccc(/C=C(\C#N)C(=O)OC(C)(C)C)o2)o1 [Probe 15] | 301 | 651 | 0.0012 | – | – | 265 | 0.35 |
| COCCNC(=O)/C(C#N)=C/c1cc2c(s1)-c1ccc(N(C)CCOC(=O)NCc3ccc(COc4nc(N)nc5[nH]cnc45)cc3)cc1C2(C)C [Probe 19] | 996 | 640 | <0.001 | 670 | 0.51 | – | – |
| COCCNC(=S)/C(C#N)=C/c1cc2c(s1)-c1ccc(N(C)CCOC(=O)NCc3ccc(COc4nc(N)nc5[nH]cnc45)cc3)cc1C2(C)C [Probe 20] | 1123 | 665 | <0.001 | 910 | 0.44 | – | – |
| COC(=S)/C(C#N)=C/c1cc2c(s1)-c1ccc(N(C)CCOC(=O)NCc3ccc(COc4nc(N)nc5[nH]cnc45)cc3)cc1C2(C)C [Probe 21] | 542 | 680 | <0.001 | 451 | 0.39 | – | – |
| CN(CCOC(=O)NCc1ccc(COc2nc(N)nc3[nH]cnc23)cc1)c1ccc2c(c1)C(C)(C)c1cc(/C=C(\C#N)C(=O)O)sc1-2 [Probe 23] | 512 | 643 | <0.001 | 433 | 0.33 | – | – |
| CN(CCOC(=O)NCc1ccc(COc2nccc(N)n2)cc1)c1ccc2c(c1)C(C)(C)c1cc(/C=C(\C#N)C(=O)OC(C)(C)C)sc1-2 [Probe 24] | 1125 | 645 | <0.001 | – | – | 535 | 0.55 |
| CN(CCOC(=O)NCc1ccc(COc2nccc(N)n2)cc1)c1ccc2c(c1)C(C)(C)c1cc(/C=C(\C#N)c3nc4ccccc4o3)sc1-2 [Probe 25] | 782 | 670 | <0.001 | – | – | 421 | 0.41 |
| CN(CCOC(=O)NCc1ccc(COc2nccc(N)n2)cc1)c1ccc2c(c1)C(C)(C)c1cc(/C=C(\C#N)c3nc4ccccc4s3)sc1-2 [Probe 26] | 522 | 675 | <0.001 | – | – | 478 | 0.46 |
| CN(CCOC(=O)NCc1ccc(COc2cc(Cl)nc(N)n2)cc1)c1ccc2c(c1)C(C)(C)c1cc(/C=C(\C#N)C(=O)OC(C)(C)C)sc1-2 [Probe 27] | 493 | 645 | <0.001 | 557 | 0.41 | – | – |
| CN(CCOC(=O)NCc1ccc(COc2nc(N)nc3[nH]cnc23)cc1)c1ccc2c(c1)C(C)(C)c1cc(/C=C(\C#N)C(=O)OC(C)(C)C)oc1-2 [Probe 28] | 1274 | 651 | <0.001 | 857 | 0.67 | – | – |
| CN(CCOC(=O)NCc1ccc(COc2nccc(N)n2)cc1)c1ccc2c(c1)C(C)(C)c1cc(/C=C(\C#N)C(=O)OC(C)(C)C)oc1-2 [Probe 29] | 1024 | 652 | <0.001 | – | – | 933 | 0.57 |
| CN(CCOC(=O)NCc1ccc(COc2nc(N)nc3[nH]cnc23)cc1)c1ccc2c(c1)C(C)(C)C(/C=C(\C#N)C(=O)OC(C)(C)C)=N2 [Probe 30] | 412 | 675 | <0.001 | 503 | 0.41 | – | – |
| CN(CCOC(=O)NCc1ccc(COc2nc(N)nc3[nH]cnc23)cc1)c1ccc2c(c1)C(C)(C)C(/C=C(\C#N)c1nc3ccccc3s1)=N2 [Probe 31] | 573 | 703 | <0.001 | 445 | 0.47 | – | – |
| CN(CCOC(=O)NCc1ccc(COc2nccc(N)n2)cc1)c1ccc2c(c1)C(C)(C)C(/C=C(\C#N)C(=O)OC(C)(C)C)=N2 [Probe 32] | 553 | 675 | <0.001 | 421 | 0.41 | – | – |
| N#C/C(=C\c1cc2c3c(c1)CCCN3CCC2)C(=O)NCc1ccc(COc2nc(N)nc3[nH]cnc23)cc1 [Reference probe BG-CCVJ, reference compound] | 260 | 501 | <0.001 | 170 | 0.02 | – | – |
| N#C/C(=C\c1cc2c3c(c1)CCCN3CCC2)C(=O)NCC(=O)NCc1ccc(COc2nc(N)nc3[nH]cnc23)cc1 [Reference probe BG-Gly-CCVJ, reference compound] | 260 | – | <0.001 | 60 | – | – | – |
